16 molecules from ChEMBL document CHEMBL1134612, “A structure-based design approach to the development of novel, reversible AChE inhibitors” (J Med Chem, 2001) can be followed below.

The target of this test is Acetylcholinesterase (Torpedo californica, UniProt P04058).
Sequence of Acetylcholinesterase (P04058 whole entry): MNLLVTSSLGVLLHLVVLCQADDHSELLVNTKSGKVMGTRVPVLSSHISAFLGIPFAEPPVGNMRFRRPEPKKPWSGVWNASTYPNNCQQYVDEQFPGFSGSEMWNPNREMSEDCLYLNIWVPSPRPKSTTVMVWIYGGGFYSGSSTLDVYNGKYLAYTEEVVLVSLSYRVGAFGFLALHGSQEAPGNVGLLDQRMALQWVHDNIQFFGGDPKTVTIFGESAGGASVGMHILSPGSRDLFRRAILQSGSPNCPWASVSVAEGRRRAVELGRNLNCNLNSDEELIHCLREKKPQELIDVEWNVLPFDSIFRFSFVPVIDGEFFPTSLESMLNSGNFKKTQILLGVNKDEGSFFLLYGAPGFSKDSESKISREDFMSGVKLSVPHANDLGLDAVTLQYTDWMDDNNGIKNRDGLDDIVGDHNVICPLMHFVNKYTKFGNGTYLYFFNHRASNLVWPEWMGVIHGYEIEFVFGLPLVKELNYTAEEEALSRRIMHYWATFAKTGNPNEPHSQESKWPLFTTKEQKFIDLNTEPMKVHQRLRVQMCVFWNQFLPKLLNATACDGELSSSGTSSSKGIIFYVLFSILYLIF

Description: Inhibition of activity against Torpedo Ray acetylcholinesterase.

The IC50 is the concentration that gives 50% inhibition. The molecule `O=C(c1cccc(CBr)c1)C(F)(F)F` displayed an IC50 of 360 nM. For the molecule `Cc1nc2ccccc2c(N)c1COCc1cccc(C(=O)C(F)(F)F)c1`, the IC50 amounted to 3 nM. As for `Cc1nc2cccc(F)c2c(N)c1CSC1(C(F)(F)F)CCCO1` (stereo unspecified), the figure is 18 nM; as for `Cc1nc2cccc(Cl)c2c(N)c1COCc1cccc(C(=O)C(F)(F)F)c1`, 5.1 nM; as for `OC(O)(CCCCCNc1c2c(nc3cccc(Cl)c13)CCCCC2)C(F)(F)F`, 36 nM.

`Cc1nc2cccc(F)c2c(N)c1CNC1(C(F)(F)F)CCC(=O)O1` (stereo unspecified) registered an IC50 of 14000 nM. The molecule `Nc1c2c(nc3cccc(Cl)c13)CCCCC2` yielded an IC50 of 2.4 nM. As for `Cc1nc2cccc(F)c2c(N)c1CN`, the figure is 1900 nM; as for `CC(=O)c1cccc(CSCc2c(C)nc3cccc(F)c3c2N)c1`, 15000 nM. As for `Cc1nc2cccc(Cl)c2c(N)c1CNC1(C(F)(F)F)CCC(=O)O1` (stereo unspecified), the figure is 7200 nM; as for `Cc1nc2cccc(F)c2c(N)c1CSCc1cccc(C(O)C(F)(F)F)c1` (stereo unspecified), 11000 nM; as for `CCOC(=O)c1c(C)nc2cccc(F)c2c1N`, 2600 nM. Consider `Cc1nc2cccc(F)c2c(N)c1COCc1cccc(C(=O)C(F)(F)F)c1`, for which the IC50 was determined as 3.8 nM. In the case of `Cc1nc2cccc(F)c2c(N)c1CSCc1cccc(C(=O)C(F)(F)F)c1` it was 3 nM; in that of `O=C(c1ccc(CNc2c3c(nc4cccc(Cl)c24)CCCCC3)s1)C(F)(F)F`, 12 nM; in that of `Cc1nc2cccc(F)c2c(N)c1COCc1ccccc1`, 2000 nM.
